# Patent US8614103B2, “Compositions and methods for treating sphingosine-1-phosphate (S1P) related ocular diseases and conditions” (Lpath, Inc., priority 2006, dated 2013)
# Tests used:
# HT29 tumor = test: SC HT29 colorectal tumor xenograft in nude NCr mice; assay type: in vivo, mouse; settings: LT1009 50 mg/kg ip q2d; Avastin 20 mg/kg q4d; 5-FU 75 mg/kg q4d
# Experimental: Nude mice were implanted sc near the right flank with one fragment per mouse of HT29 tumor from an in vivo passage. All treatments were initiated the day when 60 mice in each experiment established tumors ranging in size from approximately 100 to 200 mm^3. There were ten mice per treatment group. […] 75 mg/kg 5-FU and 20 mg/kg Avastin were administered ip and iv at a dosage of 75 mg/kg/dose and 20 mg/kg/dose, respectively, q4d, injected in a volume of 0.1 mL/10 g body weight.
# (§1) Animals were observed daily for mortality. Tumor dimensions and body weights were collected twice weekly starting with the first day of treatment and including the day of study termination. When the median tumor in the vehicle-treated control group in each study reached approximately 4,000 mg, the study was terminated. Tumors from each animal were harvested, wet weights were recorded, and tumors were processed for determination of MVD by CD-31 staining. Tumor weights (mg) were calculated using the equation for an ellipsoid sphere (l×w^2)/2=mm^3, where l and w refer to the larger and smaller dimensions collected at each measurement and assuming unit density (1 mm^3=1 mg).
# COLO 205 tumor = test: SC COLO205 colorectal tumor xenograft in nude NCr mice; assay type: in vivo, mouse; settings: LT1009 50 mg/kg ip q3d; Avastin 40 mg/kg iv q7d; Paclitaxel 15 mg/kg iv q1d×5
# Experimental: Nude mice were implanted sc near the right flank with one fragment per mouse of COLO 205 tumor from an in vivo passage. All treatments were initiated the day when 60 mice in each experiment established tumors ranging in size from approximately 100 to 200 mm3. […] Avastin was administered iv at a dosage of 40 mg/kg/dose on a q7d schedule, injected in a volume of 0.1 mL/20 g body weight. Paclitaxel (positive control), was administered iv at a dosage of 15 mg/kg/dose on a q1d×5 schedule, injected in a volume of 0.1 mL/10 g body weight.
# as §1, with “recorded,” for “recorded, and”, “microvascular densities (MVD)” for “MVD”
# DU145 tumor = test: SC DU145 prostate tumor xenograft in nude NCr mice; assay type: in vivo, mouse; settings: LT1009 50 mg/kg ip q2d; Avastin 20 mg/kg q4d; Paclitaxel 7.5 mg/kg q1d×5
# Experimental: Nude mice were implanted sc near the right flank with one fragment per mouse of DU145 tumor from an in vivo passage. All treatments were initiated the day when 60 mice in each experiment established tumors ranging in size from approximately 100 to 200 mm^3. […] Paclitaxel and Avastin were administered iv and ip at a dosage of 7.5 mg/kg/dose and 20 mg/kg/dose, q1d×5 and q4d, respectively, injected in a volume of 0.1 mL/10 g body weight.
# During the course of the study tumor growth was monitored by measuring the sc tumors on three axes and calculating the volume. At the end of the study final tumor weights and volumes were determined and then the mice were sacrificed, the tumors harvested. Microvascular densities (MVD) of the tumors were then determined by CD-31 staining.
# [1] = test system: human conjunctiva fibroblasts; test: PAI-1 expression in conjunctiva fibroblasts; assay type: cell-based
# Excerpt: Collagen is one of the primary structural proteins that supports all tissues in the body and is one of the main components of scar tissue. In the non-pathological setting, total collagen content within tissue is maintained via a balance between collagen production by fibroblasts and degradation by certain enzymes. A number of disorders that involve increased levels of scar tissue result, in part, from physiological and molecular processes that inhibit degradation of collagen that is need for scar formation. It was hypothesized that the ability of S1P to promote scar tissue formation may result from its ability to inhibit collagen degradation, thereby leading to net increases in scar tissue within organs. Therefore, the effects of S1P on expression of plasminogen activator inhibitor (PAI-1) in human conjunctiva fibroblasts were examined.
# [2] = test system: human conjunctiva fibroblasts; test: α-SMA expression in conjunctiva fibroblasts; assay type: cell-based; settings: only at this concentration
# Excerpt: (§2) In many of these disorders, circulating growth factors and chemokines promote the transformation of normal ocular cells into fibrocontractile, scar tissue-producing cells that have been termed “myofibroblasts”. Normally, myofibroblasts are responsible for tissue repair as part of the wound healing response following injury. However altered number and function of myofibroblasts are implicated in diseases characterized by pathological scar tissue formation in the liver, skin, lung, kidney, heart and eyes. In the eye, transformation of retinal pigmented epithelial (RPE) cells to a myofibroblast phenotype is linked to formation of fibro-contractile membranes which cause retinal detachment and subsequent vision impairment. In addition, myofibroblast transformation of ocular fibroblasts can result in abnormal scar tissue production after eye injury leading to subsequent vision loss. Although many of the circulating protein factors in the eye that promote myofibroblast formation have been identified, nothing is known regarding the role of lysolipids such as S1P in this process. Therefore, we examined the effects of S1P on myofibroblast transformation of several human ocular cell lines.
# (§3) In these experiments, the ability of S1P to promote α-SMA expression differed in a concentration dependent manner between the retinal pigmented epithelial cells and conjunctiva fibroblasts. […]
# [3] = test system: human retinal pigmented epithelial cells; test: α-SMA expression in retinal pigmented epithelial cells; assay type: cell-based; settings: back to basal levels at 10 μM
# Excerpt: as §2, §3
Compound,% Reduction compared to Vehicle-Treated Mice (HT29 tumor) [%],Final Tumor Weights (HT29 tumor) [mg],Final Tumor Weights (COLO 205 tumor) [mg],Final Tumor Weights (DU145 tumor) [mg],PAI-1 expression [1],concentration at which a significant increase in α-SMA expression was observed [2] [µM],concentration at which a significant increase in α-SMA expression was observed [3] [µM]
"Avastin: anti-angiogenic drug, bevacizumab (Avastin®, Genentech)",30,1927.44,1967.90,578,,,
"CCCCCCCCCCCCC/C=C/[C@@H](O)[C@@H](N)COP(=O)(O)O [S1P, sphingosine-1-phosphate]",,,,,stimulates the PAI-1 expression in a dose-dependent manner,10,0.001
